Assays:
solid tumor cells = details: in vitro; cited from earlier work
tumor growth = details: animal experimental models; cited from earlier work
[1] = tested on: stratum corneum of hairless rats; assay: Exfoliating activity in vivo after topical application on the back of hairless rats, histological evaluation; set-up: species or system rat; details: ten hairless rats, 10% CaTFA gel topical two times a day for ten days
Description: The formulations used had the following composition: Medicated formulation (D) CaTFA 10.00 g, Xanthan gum 2.00 g, Water q.s. to 100.00 g. Vehicle (V): Xanthan gum 2.00 g, Water q.s. to 100.00 g.
The experiments were carried out on 4 weeks old hairless male rats (HsdHanTM:RNU—Foxnl rnu, Harlan Italy srl, Correzzana, Italy). The back of ten rats was divided in two parts (section area: 2.5×3.0 cm) for topical application of the test formulations. A volume of 200 μl of the medicated formulation or the vehicle was applied two times a day for ten days. Fifteen hours after the last administration, the animals were sacrificed by cervical dislocation and the portion of skin submitted to the treatment was excised, carefully rinsed to remove the remaining formulation and submitted to histological evaluation. A sample of untreated skin of each animal was used as control (C). The histological evaluation was done as follows: the skin samples were fixed in 10% buffered formalin solution, dehydrated and embedded in JB-4 plastic resin. Coronal sections were cut by a microtome (Reichert-Jung) and mounted onto gelatin coated slides. Sections were stained with methylene blue/toluidine blue for microscopic examination to verify the absence of stratum corneum and the condition of the other parts of the skin. The specimens were assessed under Leitz Diaplan microscope.

angiogenesis = details: cited from earlier work
[2] = known; cited from earlier work

SMILES	cytotoxic activity (solid tumor cells)	tumor growth (tumor growth)	effective as keratolytic agent, share of treated animals [1]	antiangiogenetic activity (angiogenesis)	toxicity [2]
O=C([O-])C(F)(F)F.O=C([O-])C(F)(F)F.[Ca+2] [Calcium trifluoroacetate]	in vitro cytotoxic activity on solid tumor cells	inhibit tumor growth	70%	relevant antiangiogenetic activity	–
O=C([O-])C(F)(F)F.[Na+] [NaTFA, Sodium Trifluoroacetate]	–	–	–	–	devoid of significant toxicity

From patent US20160199326A1, “USE OF TRIFLUOROACETIC ACID AS KERATOLYTIC AGENT TO TREAT HYPERKERATOTIC SKIN LESIONS” (POLICHEM S.A., priority 2013, published 2016)
